Biological target: T1, BRD4 (Homo sapiens, UniProt O60885)
T1 construct: fused on or other part: GST tag, fused on for capture by the AlphaLISA Glutathione Acceptor Beads
Assay: BRD4-H4 tetraacetylated Peptide Inhibition AlphaScreen
Type: binding
Conditions: GST-BRD4-BD1 (aa 44-168) or GST-BRD4-BD2 (aa 333-460) with biotinylated Acetyl-Histone H4 peptide; table does not state which bromodomain
Description: Biological Methods BRD4-H4 tetraacetylated Peptide Inhibition AlphaScreen
Compounds are diluted in serial dilution 1:5 in assay buffer from 10 mM stock in DMSO (100 μM start concentration) in white OptiPlate-384 (PerkinElmer). A mix consisting of 15 nM GST-BRD4-BD1 protein (aa 44-168) or 150 nM GST-BRD4-BD2 (aa 333-460) and 15 nM biotinylated Acetyl-Histone H4 (LysS, 8, 12, 16) peptide is prepared in assay buffer (50 mM HEPES pH=7.4; 25 mM NaCl; 0.05% Tween 20; 0.1% bovine serum albumin (BSA); 10 mM dithiothreitol (DTT)). 6 μl of the mix is added to the compound dilutions. Subsequently, 6 μl of premixed AlphaLISA Glutathione Acceptor Beads and AlphaScreen Streptavidin Donor Beads from PerkinElmer (in assay buffer at a concentration of 10 μg/ml each) are added and the samples are incubated for 30 min at RT in the dark (shaking 300 rpm). Afterwards, the signal is measured in a PerkinElmer Envision HTS
Multilabel Reader using the AlphaScreen protocol from PerkinElmer. Each plate contains negative controls where biotinylated Acetyl-Histone H4 peptide and GST-BRD4-BD1 or GST-BRD4-BD2 are left out and replaced by assay buffer. Negative control values are entered as low basis value when using the software GraphPad Prism for calculations. Furthermore, a positive control (probe molecule JQ1+ with protein/peptide mix) is pipetted. Determination of IC50 values are carried out using GraphPad Prism 3.03 software (or updates thereof).

SMILES | IC50 [nM]
COc1cc(F)cc(C2c3cc(-c4c(C)noc4C)ccc3C(=O)N2C)c1 (centres unmarked) [Example 1, 5-(3,5-Dimethyl-isoxazol-4-yl)-3-(3-fluoro-5-methoxy-phenyl)-2-methyl-2,3-dihydro-isoindol-1-one] | 380
Cc1noc(C)c1-c1ccc2c(c1)C(c1ccccc1)N(C1CCN(C)CC1)C2=O (centres unmarked) [Example 2, 5-(3,5-Dimethyl-isoxazol-4-yl)-2-(1-methyl-piperidin-4-yl)-3-phenyl-2,3-dihydro-isoindol-1-one] | 57
Cc1noc(C)c1-c1ccc2c(c1)C(c1ccccc1)N(CCCN(C)C)C2=O (centres unmarked) [Example 3, 2-(3-Dimethylamino-propyl)-5-(3,5-dimethyl-isoxazol-4-yl)-3-phenyl-2,3-dihydro-isoindol-1-one] | 43
Cc1noc(C)c1-c1ccc2c(c1)C(c1ccccc1)N(CCN(C)C)C2=O (centres unmarked) [Example 4, 2-(2-Dimethylamino-ethyl)-5-(3,5-dimethyl-isoxazol-4-yl)-3-phenyl-2,3-dihydro-isoindol-1-one] | 65
Cc1noc(C)c1-c1ccc2c(c1)C(c1cc(F)cc(F)c1)N(C)C2=O (centres unmarked) [Example 5, 3-(3,5-Difluoro-phenyl)-5-(3,5-dimethyl-isoxazol-4-yl)-2-methyl-2,3-dihydro-isoindol-1-one] | 229
Cc1noc(C)c1-c1ccc2c(c1)C(C1CCCCC1)N(C)C2=O (centres unmarked) [Example 6, 3-Cyclohexyl-5-(3,5-dimethyl-isoxazol-4-yl)-2-methyl-2,3-dihydro-isoindol-1-one] | 43
Cc1noc(C)c1-c1ccc2c(c1)C(C1CCC3(CCC3)CC1)N(C)C2=O (centres unmarked) [Example 7, 5-(3,5-Dimethyl-isoxazol-4-yl)-2-methyl-3-spiro[3.5]non-7-yl-2,3-dihydro-isoindol-1-one] | 1090
Cc1noc(C)c1-c1ccc2c(c1)C(c1ccccc1)N(C)C2=O (centres unmarked) [Example 8, 5-(3,5-Dimethyl-isoxazol-4-yl)-2-methyl-3-phenyl-2,3-dihydro-isoindol-1-one] | 55
Cc1noc(C)c1-c1ccc2c(c1)[C@H](c1ccccc1)N(C)C2=O [Example 9, (S)-5-(3,5-Dimethyl-isoxazol-4-yl)-2-methyl-3-phenyl-2,3-dihydro-isoindol-1-one] | 14
Cc1noc(C)c1-c1ccc2c(c1)C(C)(c1ccccc1)N(C)C2=O (centres unmarked) [Example 10, 5-(3,5-Dimethyl-isoxazol-4-yl)-2,3-dimethyl-3-phenyl-2,3-dihydro-isoindol-1-one] | 38
Cc1cc(-c2c(C)noc2C)cc2c1C(=O)N(C)C2c1ccccc1 (centres unmarked) [Example 11, 5-(3,5-Dimethyl-isoxazol-4-yl)-2,7-dimethyl-3-phenyl-2,3-dihydro-isoindol-1-one] | 2490
Cc1noc(C)c1-c1ccc2c(c1)C(c1ccccc1)N(C(C)C)C2=O (centres unmarked) [Example 12, 5-(3,5-Dimethyl-isoxazol-4-yl)-2-isopropyl-3-phenyl-2,3-dihydro-isoindol-1-one] | 75
Cc1noc(C)c1-c1ccc2c(c1)C(c1ccccc1)OC2=O (centres unmarked) [Example 13, 5-(3,5-Dimethyl-isoxazol-4-yl)-3-phenyl-3H-isobenzofuran-1-one] | 193
Cc1noc(C)c1-c1ccc2c(c1)C1(c3ccccc3)OCCN1C2=O (centres unmarked) [Example 14, 8-(3,5-Dimethyl-isoxazol-4-yl)-9b-phenyl-2,3-dihydro-9bH-oxazolo[2,3-a]isoindol-5-one] | 72
Cc1noc(C)c1-c1ccc2c(c1)C1(c3ccccc3)OCCCN1C2=O (centres unmarked) [Example 15, 9-(3,5-Dimethyl-isoxazol-4-yl)-10b-phenyl-3,4-dihydro-2H,10bH-[1,3]oxazino[2,3-a]isoindol-6-one] | 36
COc1c(-c2c(C)noc2C)ccc2c1C(c1ccccc1)OC2=O (centres unmarked) [Example 16, 5-(3,5-Dimethyl-isoxazol-4-yl)-4-methoxy-3-phenyl-3,1-isobenzofuran-1-one] | 350
Cc1noc(C)c1-c1ccc2c(c1C)C(c1ccccc1)OC2=O (centres unmarked) [Example 17, 5-(3,5-Dimethyl-isoxazol-4-yl)-4-methyl-3-phenyl-3H-isobenzofuran-1-one] | 1080
Cc1noc(C)c1-c1ccc2c(c1)C(C)(c1ccccc1)C(=O)N2 (centres unmarked) [Example 18, 5-(3,5-Dimethyl-isoxazol-4-yl)-3-methyl-3-phenyl-1,3-dihydro-indol-2-one] | 54

SMILES | IC50 [nM]
Cc1noc(C)c1-c1ccc2c(c1)C(C)(c1ccccc1)C(=O)N2C (centres unmarked) [Example 19, 5-(3,5-Dimethyl-isoxazol-4-yl)-1,3-dimethyl-3-phenyl-1,3-dihydro-indol-2-one] | 275
Cc1noc(C)c1-c1ccc2c(c1)C(C)(c1ccccc1)C(=O)N2c1cccnc1 (centres unmarked) [Example 20, 5-(3,5-Dimethyl-isoxazol-4-yl)-3-methyl-3-phenyl-1-pyridin-3-yl-1,3-dihydro-indol-2-one] | 242
Cc1noc(C)c1-c1ccc2c(c1)C(O)(c1ccccc1)C(=O)N2 (centres unmarked) [Example 21, 5-(3,5-Dimethyl-isoxazol-4-yl)-3-hydroxy-3-phenyl-1,3-dihydro-indol-2-one] | 259
Cc1noc(C)c1-c1ccc2c(c1)[C@](O)(c1ccccc1)C(=O)N2 [Example 22, 5-(3,5-Dimethyl-isoxazol-4-yl)-3-hydroxy-3-phenyl-1,3-dihydro-indol-2-one] | 48
Cc1noc(C)c1-c1ccc2c(c1)C(O)(c1ccccc1CN1CCOCC1)C(=O)N2 (centres unmarked) [Example 23, 5-(3,5-Dimethyl-isoxazol-4-yl)-3-hydroxy-3-(2-morpholin-4-ylmethyl-phenyl)-1,3-dihydro-indol-2-one] | 176
Cc1noc(C)c1-c1ccc2c(c1)[C@](O)(c1ccccc1CN1CCOCC1)C(=O)N2 [Example 24, 5-(3,5-Dimethyl-isoxazol-4-yl)-3-hydroxy-3-(2-morpholin-4-ylmethyl-phenyl)-1,3-dihydro-indol-2-one] | 41
Cc1noc(C)c1-c1ccc2c(c1)C(O)(c1ccc(Cl)cc1)C(=O)N2 (centres unmarked) [Example 25, 3-(4-Chloro-phenyl)-5-(3,5-dimethyl-isoxazol-4-yl)-3-hydroxy-1,3-dihydro-indol-2-one] | 295
Cc1noc(C)c1-c1ccc2c(c1)C(O)(c1cccs1)C(=O)N2 (centres unmarked) [Example 26, 5-(3,5-Dimethyl-isoxazol-4-yl)-3-hydroxy-3-thiophen-2-yl-1,3-dihydro-indol-2-one] | 320
Cc1noc(C)c1-c1ccc2c(c1)C(O)(C1CCCC1)C(=O)N2 (centres unmarked) [Example 27, 3-Cyclopentyl-5-(3,5-dimethyl-isoxazol-4-yl)-3-hydroxy-1,3-dihydro-indol-2-one] | 698
Cc1noc(C)c1-c1ccc2c(c1)C(O)(c1ccc(F)c(F)c1)C(=O)N2 (centres unmarked) [Example 28, 3-(3,4-Difluoro-phenyl)-5-(3,5-dimethyl-isoxazol-4-yl)-3-hydroxy-1,3-dihydro-indol-2-one] | 203
Cc1noc(C)c1-c1ccc2c(c1)C(O)(c1ccc3c(c1)OCO3)C(=O)N2 (centres unmarked) [Example 29, 3-Benzo[1,3]dioxol-5-yl-5-(3,5-dimethyl-isoxazol-4-yl)-3-hydroxy-1,3-dihydro-indol-2-one] | 541
Cc1noc(C)c1-c1ccc2c(c1)C(O)(C1CCCCC1)C(=O)N2 (centres unmarked) [Example 30, 3-cyclohexyl-5-(3,5-dimethyl-isoxazol-4-yl)-3-hydroxy-1,3-dihydro-indol-2-one] | 196
Cc1noc(C)c1-c1ccc2c(c1)C(O)(c1cccnc1)C(=O)N2 (centres unmarked) [Example 31, 5-(3,5-Dimethyl-isoxazol-4-yl)-3-hydroxy-3-pyridin-3-yl-1,3-dihydro-indol-2-one] | 395
Cc1noc(C)c1-c1ccc2c(c1)C(O)(c1ccccn1)C(=O)N2 (centres unmarked) [Example 32, 5-(3,5-Dimethyl-isoxazol-4-yl)-3-hydroxy-3-pyridin-2-yl-1,3-dihydro-indol-2-one] | 332
Cc1ccccc1C1(O)C(=O)Nc2ccc(-c3c(C)noc3C)cc21 (centres unmarked) [Example 33, 5-(3,5-Dimethyl-isoxazol-4-yl)-3-hydroxy-3-o-tolyl-1,3-dihydro-indol-2-one] | 1060
Cc1noc(C)c1-c1ccc2c(c1)C(O)(C1CCOCC1)C(=O)N2 (centres unmarked) [Example 34, 5-(3,5-Dimethyl-isoxazol-4-yl)-3-hydroxy-3-(tetrahydro-pyran-4-yl)-1,3-dihydro-indol-2-one] | 1570
Cc1cncc(C2(O)C(=O)Nc3ccc(-c4c(C)noc4C)cc32)c1 (centres unmarked) [Example 35, 5-(3,5-Dimethyl-isoxazol-4-yl)-3-hydroxy-3-(5-methyl-pyridin-3-yl)-1,3-dihydro-indol-2-one] | 1040
